Assays:
CYP2C9 = target: T1, CYP2C9 (Homo sapiens, UniProt P11712); assay: CYP inhibition in human liver microsomes, diclofenac substrate; format: in vitro ADME; conditions: probe diclofenac, read-out: CYP2C9 Inh %
T1 construct: using isoform-specific substrates incubated with human liver microsomes; tissue Eurofins protocol ITEMG232; host or cells: human liver microsomes

[1] = target: T2, human recombinant AT2 receptor (Homo sapiens, UniProt P50052); assay: biochemical; format: binding; conditions: ligand 125I CGP 42112A; for IC50: test concentrations 1, 10, 100 and 1000 nM, C21* = mean of runs, read-out: AT2 GraFit IC50
T2 sequence (P50052 1-363): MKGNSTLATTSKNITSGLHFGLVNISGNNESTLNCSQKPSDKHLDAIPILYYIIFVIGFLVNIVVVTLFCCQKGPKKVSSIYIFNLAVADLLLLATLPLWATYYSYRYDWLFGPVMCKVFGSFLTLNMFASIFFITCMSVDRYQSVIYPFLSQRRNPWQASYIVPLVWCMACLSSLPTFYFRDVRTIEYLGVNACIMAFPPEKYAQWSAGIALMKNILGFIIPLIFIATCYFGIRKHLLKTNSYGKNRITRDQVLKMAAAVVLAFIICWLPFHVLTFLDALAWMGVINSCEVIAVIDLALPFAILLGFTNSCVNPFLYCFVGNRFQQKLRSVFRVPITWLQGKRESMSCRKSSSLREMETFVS

CYP2C19 = target: T3, CYP2C19 (Homo sapiens, UniProt P33261); assay: CYP inhibition in human liver microsomes, omeprazole substrate; format: in vitro ADME; conditions: probe omeprazole, read-out: CYP2C19 Inh %
T3 construct: using isoform-specific substrates incubated with human liver microsomes; tissue Eurofins protocol ITEMG232; host or cells: human liver microsomes

CYP2B6 = target: T4, CYP2B6 (Homo sapiens, UniProt P20813); assay: CYP inhibition in human liver microsomes, bupropion substrate; format: in vitro ADME; conditions: probe bupropion, read-out: CYP2B6 Inh %
T4 construct: using isoform-specific substrates incubated with human liver microsomes; tissue Eurofins protocol ITEMG232; host or cells: human liver microsomes
T4 sequence (P20813 1-491): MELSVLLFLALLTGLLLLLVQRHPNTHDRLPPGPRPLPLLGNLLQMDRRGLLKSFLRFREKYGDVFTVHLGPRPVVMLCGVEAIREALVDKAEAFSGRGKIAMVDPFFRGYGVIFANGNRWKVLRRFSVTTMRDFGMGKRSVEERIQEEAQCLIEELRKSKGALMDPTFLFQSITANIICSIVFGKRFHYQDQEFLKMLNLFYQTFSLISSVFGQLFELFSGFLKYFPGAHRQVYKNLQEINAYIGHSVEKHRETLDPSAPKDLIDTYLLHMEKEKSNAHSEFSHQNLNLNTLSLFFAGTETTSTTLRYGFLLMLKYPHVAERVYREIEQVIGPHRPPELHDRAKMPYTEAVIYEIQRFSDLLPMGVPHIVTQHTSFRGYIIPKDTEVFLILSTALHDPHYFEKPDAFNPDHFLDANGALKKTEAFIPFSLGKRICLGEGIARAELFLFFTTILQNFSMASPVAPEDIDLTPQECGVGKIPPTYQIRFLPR

CYP3A4&5 = assay: CYP inhibition in human liver microsomes, testosterone substrate; format: in vitro ADME; conditions: probe testosterone, read-out: CYP3A4&5 testosterone Inh %
[2] = target: T5, human recombinant AT1 receptor (Homo sapiens, UniProt P30556); assay: Binding to AT1 receptor, radiometric scintillation assay (Eurofins ITEM24)
T5 construct: Eurofins protocol ITEM24
T5 sequence (P30556 1-359): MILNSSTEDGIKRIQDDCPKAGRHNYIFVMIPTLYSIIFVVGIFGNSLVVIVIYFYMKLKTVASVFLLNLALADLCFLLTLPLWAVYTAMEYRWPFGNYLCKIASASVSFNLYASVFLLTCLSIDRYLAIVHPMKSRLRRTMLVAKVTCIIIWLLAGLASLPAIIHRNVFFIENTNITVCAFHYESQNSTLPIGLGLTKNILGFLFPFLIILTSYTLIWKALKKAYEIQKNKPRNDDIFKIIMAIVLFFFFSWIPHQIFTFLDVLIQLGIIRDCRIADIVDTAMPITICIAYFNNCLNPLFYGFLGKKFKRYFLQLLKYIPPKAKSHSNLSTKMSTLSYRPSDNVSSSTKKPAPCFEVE

CYP3A4 = target: T6, CYP3A4 (Homo sapiens, UniProt P08684); assay: CYP inhibition in human liver microsomes, midazolam substrate; format: in vitro ADME; conditions: probe midazolam, read-out: CYP3A4 midazolam Inh %
T6 construct: using isoform-specific substrates incubated with human liver microsomes; tissue Eurofins protocol ITEMG232; host or cells: human liver microsomes

CYP2D6 = target: T7, CYP2D6 (Homo sapiens, UniProt P10635); assay: CYP inhibition in human liver microsomes, dextromethorphan substrate; format: in vitro ADME; conditions: probe dextromethorphan, read-out: CYP2D6 Inh %
T7 construct: tissue Eurofins protocol ITEMG232; host or cells: human liver microsomes

CYP2C8 = target: T8, CYP2C8 (Homo sapiens, UniProt P10632); assay: CYP inhibition in human liver microsomes, paclitaxel and amodiaquine substrates; format: in vitro ADME; conditions: probe paclitaxel and amodiaquine, read-out: CYP2C8 Inh %
T8 construct: using isoform-specific substrates incubated with human liver microsomes; tissue Eurofins protocol ITEMG232; host or cells: human liver microsomes
T8 sequence (P10632 1-490): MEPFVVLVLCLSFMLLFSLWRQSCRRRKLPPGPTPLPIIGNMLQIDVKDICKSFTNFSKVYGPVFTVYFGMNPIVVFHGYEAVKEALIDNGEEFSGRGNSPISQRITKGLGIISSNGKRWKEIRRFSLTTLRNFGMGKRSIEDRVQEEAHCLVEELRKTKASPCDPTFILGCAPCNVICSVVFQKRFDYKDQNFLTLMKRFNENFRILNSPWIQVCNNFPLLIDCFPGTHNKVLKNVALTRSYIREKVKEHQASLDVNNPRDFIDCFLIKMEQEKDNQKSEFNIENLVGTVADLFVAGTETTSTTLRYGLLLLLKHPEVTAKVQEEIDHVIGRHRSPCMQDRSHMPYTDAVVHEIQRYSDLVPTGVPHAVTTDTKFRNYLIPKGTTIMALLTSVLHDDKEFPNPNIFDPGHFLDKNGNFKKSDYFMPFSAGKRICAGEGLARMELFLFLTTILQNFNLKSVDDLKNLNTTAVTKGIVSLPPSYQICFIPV

CYP1A = target: T9, CYP1A (Homo sapiens, UniProt P05177); assay: CYP inhibition in human liver microsomes, phenacetin substrate; format: in vitro ADME; conditions: probe phenacetin, read-out: CYP1A Inh %
T9 construct: using isoform-specific substrates incubated with human liver microsomes; tissue Eurofins protocol ITEMG232; host or cells: human liver microsomes

[3] = Metabolic stability in pooled human liver microsomes; format: in vitro ADME; conditions: human liver microsomes 0.5 mg/mL, 1 uM test compound, 37° C.; for T1/2, + NaDPH: with 1 mM NADPH; for half-life at 1 uM: pooled human liver microsomes, without NADPH, read-out: T1/2, no NaDPH
Description: Pooled human liver microsomes in PBS at a concentration of 0.5 mg/mL was incubated with or without 1 mM NADPH for 70 min at 37° C. Test compound was added after 10 minutes to a final concentration of 1 uM. Samples were withdrawn at 0, 5, 15 and 60 minutes and added to test tubes containing acetonitrile, to stop the reaction, and with terfenadine, used as internal standard. After centrifugation at 10 000×g for 5 minutes the supernatant was diluted 1:1 with 1% formic acid. Samples were separated on a reverse phase column and detected by triple quadrupole MSMS (Agilant model 6540). The concentration of the parent compound at the different time points was measured with an external standard curve using terfenadine as internal standard and the initial metabolic rate in the presence or absence of NADPH calculated.

T1 sequence (P11712 whole entry, canonical isoform): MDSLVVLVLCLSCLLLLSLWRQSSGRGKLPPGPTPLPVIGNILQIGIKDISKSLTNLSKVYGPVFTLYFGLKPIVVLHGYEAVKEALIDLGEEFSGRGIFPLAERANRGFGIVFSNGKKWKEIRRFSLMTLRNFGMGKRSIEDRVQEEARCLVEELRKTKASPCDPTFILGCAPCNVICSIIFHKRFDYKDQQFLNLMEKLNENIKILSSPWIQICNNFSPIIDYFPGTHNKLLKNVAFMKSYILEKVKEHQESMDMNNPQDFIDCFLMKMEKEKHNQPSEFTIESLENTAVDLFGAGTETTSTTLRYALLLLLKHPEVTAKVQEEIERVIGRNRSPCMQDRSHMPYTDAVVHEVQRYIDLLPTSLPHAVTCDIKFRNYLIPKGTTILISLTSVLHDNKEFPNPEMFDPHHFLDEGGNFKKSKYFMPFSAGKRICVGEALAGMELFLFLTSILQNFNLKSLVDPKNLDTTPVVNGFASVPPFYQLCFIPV
T7 sequence (P10635 whole entry): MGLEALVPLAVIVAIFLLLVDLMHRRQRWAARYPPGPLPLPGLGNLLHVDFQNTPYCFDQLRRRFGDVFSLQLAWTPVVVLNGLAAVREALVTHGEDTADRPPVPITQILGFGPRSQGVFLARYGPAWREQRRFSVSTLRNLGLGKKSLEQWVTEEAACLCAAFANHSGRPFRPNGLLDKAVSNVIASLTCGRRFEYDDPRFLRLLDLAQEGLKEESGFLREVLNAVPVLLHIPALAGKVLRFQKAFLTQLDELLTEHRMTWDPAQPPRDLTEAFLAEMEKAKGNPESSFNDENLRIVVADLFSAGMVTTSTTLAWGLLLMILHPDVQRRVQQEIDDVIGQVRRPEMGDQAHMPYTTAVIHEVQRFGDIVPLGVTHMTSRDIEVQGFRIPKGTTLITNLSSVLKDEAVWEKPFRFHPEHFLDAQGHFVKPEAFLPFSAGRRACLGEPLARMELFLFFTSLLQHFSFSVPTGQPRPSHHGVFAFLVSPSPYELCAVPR
T6 sequence (P08684 whole entry, canonical isoform): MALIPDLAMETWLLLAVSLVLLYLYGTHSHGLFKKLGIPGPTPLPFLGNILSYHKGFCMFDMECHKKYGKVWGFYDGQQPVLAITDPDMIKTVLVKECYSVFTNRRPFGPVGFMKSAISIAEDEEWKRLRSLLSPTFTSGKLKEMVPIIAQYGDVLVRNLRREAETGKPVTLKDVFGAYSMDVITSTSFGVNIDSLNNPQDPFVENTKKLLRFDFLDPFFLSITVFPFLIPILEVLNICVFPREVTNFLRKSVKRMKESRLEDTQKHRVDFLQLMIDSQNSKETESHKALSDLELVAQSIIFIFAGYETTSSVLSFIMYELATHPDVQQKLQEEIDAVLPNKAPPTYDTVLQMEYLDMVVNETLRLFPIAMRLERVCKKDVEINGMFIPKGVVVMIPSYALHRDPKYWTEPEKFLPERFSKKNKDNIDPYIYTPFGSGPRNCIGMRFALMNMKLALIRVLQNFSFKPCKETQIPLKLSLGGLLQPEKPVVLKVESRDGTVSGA
T3 sequence (P33261 whole entry, canonical isoform): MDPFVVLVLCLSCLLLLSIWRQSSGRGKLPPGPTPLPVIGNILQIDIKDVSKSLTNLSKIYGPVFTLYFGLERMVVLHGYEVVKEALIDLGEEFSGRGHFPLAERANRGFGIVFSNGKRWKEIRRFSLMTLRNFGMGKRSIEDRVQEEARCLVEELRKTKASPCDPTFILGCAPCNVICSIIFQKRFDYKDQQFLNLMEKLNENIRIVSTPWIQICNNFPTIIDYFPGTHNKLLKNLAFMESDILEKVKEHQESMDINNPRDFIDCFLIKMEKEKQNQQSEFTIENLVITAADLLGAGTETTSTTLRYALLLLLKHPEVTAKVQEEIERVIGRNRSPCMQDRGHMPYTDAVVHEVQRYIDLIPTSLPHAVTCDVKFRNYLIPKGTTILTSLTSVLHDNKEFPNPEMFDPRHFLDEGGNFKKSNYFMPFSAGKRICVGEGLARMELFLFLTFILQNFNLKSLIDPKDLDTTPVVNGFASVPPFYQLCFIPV
T9 sequence (P05177 whole entry, canonical isoform): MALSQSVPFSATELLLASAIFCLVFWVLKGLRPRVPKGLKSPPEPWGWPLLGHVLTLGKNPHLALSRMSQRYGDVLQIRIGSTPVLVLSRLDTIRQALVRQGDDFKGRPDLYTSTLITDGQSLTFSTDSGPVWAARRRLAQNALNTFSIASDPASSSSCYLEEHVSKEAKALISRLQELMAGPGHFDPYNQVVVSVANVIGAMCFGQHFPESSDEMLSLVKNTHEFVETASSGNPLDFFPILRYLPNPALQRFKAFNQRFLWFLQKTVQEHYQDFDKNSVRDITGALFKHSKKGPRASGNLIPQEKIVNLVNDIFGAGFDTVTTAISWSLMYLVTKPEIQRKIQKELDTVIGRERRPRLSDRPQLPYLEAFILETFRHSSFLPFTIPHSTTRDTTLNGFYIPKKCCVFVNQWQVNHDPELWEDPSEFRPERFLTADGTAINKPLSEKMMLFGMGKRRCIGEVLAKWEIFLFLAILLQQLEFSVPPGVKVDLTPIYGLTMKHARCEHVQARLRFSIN

inhibition at 10 µM (CYP2C9) [%] | IC50 [1] [nM] | inhibition at 10 µM (CYP2C19) [%] | inhibition at 10 µM (CYP2B6) [%] | inhibition at 10 µM (CYP3A4&5) [%] | IC50 [2] [nM] | inhibition at 10 µM (CYP3A4) [%] | inhibition at 10 µM (CYP2D6) [%] | inhibition at 10 µM (CYP2C8) [%] | inhibition at 10 µM (CYP1A) [%] | T1/2, + NaDPH [3] [h] | half-life at 1 uM [3] [h] | Ki ([1]; seven-point dose-response curve, read-out: AT2R Ki) [nM] | Structure (SMILES)
16.5 | 20 | 26.3 | 3.1 | 18.4 | 21000 | 25.3 | 13.6 | 30.9 | -0.9 | >1 | > 1 |  | Cc1nccn1Cc1ccc(-c2cc(CC(C)C)sc2S(=O)(=O)NC(=O)NCCCO)cc1F [Example 2, 1-[[3-[3-Fluoro-4-[(2-methylimidazol-1-yl)methyl]phenyl]-5-isobutyl-2-thienyl]sulfonyl]-3-(3-hydroxypropyl)urea]
 | 1.9 |  |  |  | 8400 |  |  |  |  | >1 | > 1 | 0.95 | CC(C)Cc1cc(-c2ccc(Cn3ccnc3C(C)C)c(F)c2)c(S(=O)(=O)NC(=O)NCCO)s1 [Example 10, 1-[[3-[3-Fluoro-4-[(2-isopropylimidazol-1-yl)methyl]phenyl]-5-isobutyl-2-thienyl]sulfonyl]-3-(2-hydroxyethyl)urea]
26.8 | 2.5 | 17.7 | 14 | 22.3 | 9500 | 23.7 | 8 | 2.3 | 11.8 | >1 | > 1 |  | CCc1nccn1Cc1ccc(-c2cc(CC(C)C)sc2S(=O)(=O)NC(=O)NCCO)cc1F [Example 8]
11.5 | 0.64 | 14.7 | 8.2 | 4.5 | 2100 | 13 | 10.1 | 73.8 | 3.5 | >1 | > 1 |  | CC(C)Cc1cc(-c2ccc(Cn3ccnc3C(C)(C)C)c(F)c2)c(S(=O)(=O)NC(=O)NCCO)s1 [Example 6, 1-[[3-[4-[(2-tert-Butylimidazol-1-yl)methyl]-3-fluoro-phenyl]-5-isobutyl-2-thienyl]sulfonyl]-3-(2-hydroxyethyl)urea]
31.8 | 5.4 | 21.2 | 22.6 | 29.7 | 23000 | 52.8 | 38 | 28 | 15.5 | >1 | > 1 |  | Cc1nccn1Cc1ccc(-c2cc(CC(C)C)sc2S(=O)(=O)NC(=O)NCC(C)(C)O)cc1F [Example 3, 1-[[3-[3-Fluoro-4-[(2-methylimidazol-1-yl)methyl]phenyl]-5-isobutyl-2-thienyl]sulfonyl]-3-(2-hydroxy-2-methyl-propyl)urea]
5.5 | 5 | 6.5 | 6.2 | 12.4 | 24000 | 7.2 | 5.3 | 35.2 | -26.3 | >1 | > 1 |  | Cc1nccn1Cc1ccc(-c2cc(CC(C)C)sc2S(=O)(=O)NC(=O)NCCO)cc1F [Example 1, 1-[[3-[3-Fluoro-4-[(2-methylimidazol-1-yl)methyl]phenyl]-5-isobutyl-2-thienyl]sulfonyl]-3-(2-hydroxyethyl)urea]
9.9 | 0.95 | 27.4 | 17.4 | 2.8 | 1900 | 7.7 | 3.9 | 69.8 | 2.7 | >1 | > 1 |  | CC(C)Cc1cc(-c2ccc(Cn3ccnc3C(C)(C)C)c(F)c2)c(S(=O)(=O)NC(=O)NCC(C)(C)O)s1 [Example 7, 1-[[3-[4-[(2-tert-Butylimidazol-1-yl)methyl]-3-fluoro-phenyl]-5-isobutyl-2-thienyl]sulfonyl]-3-(2-hydroxy-2-methyl-propyl)urea]
38 | 18.4 | -30.1 | 27.4 | 27.5 | 49000 | 44.6 | 36.3 | 36.2 | 8 | >1 | > 1 |  | Cc1nccn1Cc1c(F)cc(-c2cc(CC(C)C)sc2S(=O)(=O)NC(=O)NCCO)cc1F [Example 5, 1-[[3-[3,5-Difluoro-4-[(2-methylimidazol-1-yl)methyl]phenyl]-5-isobutyl-2-thienyl]sulfonyl]-3-(2-hydroxyethyl)urea]
11.9 | 45.5 | 29.6 | 3.2 | 18.9 | 34000 | 24.5 | 7.6 | 10.4 | -9.7 |  |  |  | Cc1nccn1Cc1ccc(-c2cc(CC(C)C)sc2S(=O)(=O)NC(=O)NCCO)c(F)c1 [Example 4, 1-[[3-[2-Fluoro-4-[(2-methylimidazol-1-yl)methyl]phenyl]-5-isobutyl-2-thienyl]sulfonyl]-3-(2-hydroxyethyl)urea]

Source: US20240174657A1, “SELECTIVE ANGIOTENSIN II RECEPTOR LIGANDS” (priority 2021, published 2024)
